# Experimental data from ChEMBL document CHEMBL3507680, “University of Dundee, Gates Library screen for HepG2 cell viability”.
# Experiment: Human HepG2 cell viability assay in 384 well format
# Assay type: toxicity, cell-based
# Parameters: dose 125 nL, time 70.5 hour; concentration not given beside the values
# Settings: HepG2 cells, read-out: Inhibition
row,SMILES,cytotoxicity at 70.5 h
1,CN(CCCc1cc(-c2ccccc2)no1)S(C)(=O)=O,8.59%
2,O=C(CN1C(=O)CCNC1=O)N1CCC(c2ccc(F)cc2)C1 (stereo not drawn),-5.75%
3,CNC(=O)c1ccc(OC)c(NCc2ncc(-c3cccs3)o2)c1,-92.5%
4,O=C(NCc1ccccc1Cn1ccnc1)N1CCSCC1,-6.06%
5,Cc1cccnc1CC(C)Nc1ncc(C)c(N(C)C)n1 (stereo not drawn),2.64%
6,Cc1ccc(CNC(=O)N2CCN(Cc3ccsc3)CC2)n1C,30.9%
7,Cc1ccc(CN2CCc3nc(C(C)C)nc(O)c3CC2)s1,-4.74%
8,Cc1cc(C(=O)N2CCCN(Cc3nccn3C(C)C)CC2)no1,-5.9%
9,COCC(=O)N1CCC2(CC1)NC(=O)[C@H]1CN(C(=O)N(C)C)C[C@H]12,-7.64%
10,c1cnc(N2C[C@@H]3COC[C@]3(COCC3CCCC3)C2)nc1,-14.8%
11,CN(Cc1cccc(OC(F)(F)F)c1)C(=O)c1ccncc1F,-4.4%
12,Cc1nn(C)c(Cl)c1C1CCCN1Cc1nc(-c2ccco2)no1 (stereo not drawn),-6.17%
13,Fc1ccc(CNCC2OCCc3cn(CC4CC4)nc32)cc1 (stereo not drawn),5.14%
14,Cc1ccc(N2CCCC(NCC(=O)NCC3CC3)C2)nn1 (stereo not drawn),1.19%
15,CC(C)COC(C)C(=O)NCc1ccccc1Cn1ccnc1 (stereo not drawn),-7%
16,Cc1ccccc1C(C)NC(=O)CN1CCN(Cc2ccc(Br)s2)CC1 (stereo not drawn),18.7%
17,O=c1[nH]c(-c2ccccn2)nc2c1CCN(S(=O)(=O)N1CCCC1)C2,-3.27%
18,CN(C)C(=O)COCc1nnc2n1CCN(Cc1ccoc1)C2,-3.1%
19,CN(CCO)c1nc(-c2ccccn2)nc2c1CCNC2,-0.45%
20,CCc1nc(CNCC2CCCN2c2cc(NC)ncn2)cs1 (stereo not drawn),-4.75%
21,COCCN1CC[C@@H]2CN(Cc3nccn3C)C[C@@H]2C1,8.43%
22,O=C(Cc1ccsc1)N1C[C@H]2CCC[C@@]2(COCc2ccccn2)C1,10.5%
23,COCCN1C[C@H]2CCN(C(C)=O)CC[C@H]2S1(=O)=O,0.94%

row,SMILES,cytotoxicity at 70.5 h
1,COCCN1C(=O)[C@]2(CC[C@@H]3CN(C(=O)NC4CCCC4)C[C@@H]32)N=C1C,-14.1%
2,Cc1cnc(N2C[C@H]3CN(Cc4csc(C)n4)C(=O)[C@H]3C2)nc1,-9.66%
3,Cc1nc(CN2CCN(CC(O)CN3CCOCC3)CC2)oc1C (stereo not drawn),8.53%
4,CCNc1ncc2c(n1)CN(c1cccc(OC)c1)C2=O,-7.43%
5,CCCc1nc(NCCc2ccccc2)c2c(n1)c(C)nn2CC,-16.2%
6,CCc1nn(C)c(Cl)c1CN1CCCC2(CC1)CN(C)C(=O)O2 (stereo not drawn),-14.9%
7,Cc1ccc(OCC(C)NC(=O)CN(C)c2ccc(C#N)cn2)cc1 (stereo not drawn),-3.51%
8,Cc1cc(CN2CCN(C(=O)C3CCC3)[C@@H]3CS(=O)(=O)C[C@@H]32)ccc1F,1.76%
9,CCN1C(=O)CCC12CCCN(CCc1ccccc1)C2 (stereo not drawn),34.9%
10,O=C(c1ccccc1N1CCOCC1)N1CCCC(n2ccnc2)C1 (stereo not drawn),-6.72%
11,CC(C)N(C)CC(=O)NC1CCc2nccn2C1 (stereo not drawn),17.3%
12,CNc1cc(CNC(=O)c2ccccc2OC)nc(-c2ccncc2)n1,12.5%
13,O=C([C@H]1C[C@H]2OCC[C@H]2N(Cc2cccnc2)C1)N1CCCCO1,-7.65%
14,CC(C)c1noc(-c2ccc(NCCCN3CCCC(O)C3)nc2)n1 (stereo not drawn),-6.37%
15,CC(C)(C)c1cnc(CN(Cc2cccnc2)CC2CCCO2)o1 (stereo not drawn),-12.3%
16,OCCOc1cc(F)ccc1NCc1nc(-c2cccs2)no1,-10.9%
17,c1cnc(N2CCOCC3(CCCN(Cc4cc[nH]n4)C3)C2)nc1 (stereo not drawn),-3%
18,NC(=O)N1CCCN(CCCSCc2ccccc2)CC1,-17.6%
19,CC(C1CCN(Cc2ccc(N(C)C)nc2)CC1)N(C)C (stereo not drawn),-2.39%
20,CCOc1ccnc(N2CCN(C(=O)c3c(CC)noc3C)CC2)n1,-7.39%
21,CCOc1ccccc1C(CC(=O)Nc1ccccc1)NC(C)=O (stereo not drawn),-6.59%
22,COC(=O)c1cc(C(=O)N2CCCCCC2)n(-c2ccccc2)n1,11.6%
23,Cc1cc(NC(=O)CN2CCCC2c2noc(C3CC3)n2)n(C)n1 (stereo not drawn),-10.4%

row,SMILES,cytotoxicity at 70.5 h
1,Cc1nn(C)c(C)c1C1CCCN1Cc1nc(-c2cccs2)no1 (stereo not drawn),-2%
2,CC(=O)N1CCC(C(=O)NC2CCc3nccn3C2)CC1 (stereo not drawn),-97.6%
3,CSCCC(=O)N1CCN(CC(C)(C)O)CC1,-13.7%
4,CN1CCCn2c(nc(CNS(=O)(=O)C3CC3)cc2=O)C1,-1.98%
5,O=C(CCN1C(=O)CCC1=O)Nc1ccc(OCC(F)(F)F)nc1,-0.0202%
6,CCN(CC)Cc1cn2c(n1)CN(Cc1c(C)noc1C)CC2,0.0103%
7,O=C(O)C1(n2ccnc2)CCN(Cc2ccc3occc3c2)CC1,-5.96%
8,Cc1cnc(-c2nc(C3CCN(C(=O)Cc4ccsc4)CC3)no2)cn1,2.59%
9,CCc1nc(N2CCN(c3ncccc3C#N)CC2)c2cnn(C)c2n1,22%
10,CC(C)c1ccc(OCC(=O)N2CCOCC2c2ncon2)cc1 (stereo not drawn),-8.54%
11,NC(=O)CN(Cc1ncc(-c2ccccc2)o1)C1CCCC1,-7.44%
12,CC(C)Cc1cc(C(=O)N2CCC(Oc3cccnc3)CC2)n(C)n1,-8.18%
13,CCCC(=O)N(CC)C(c1cccnc1)c1ccc2c(c1)CCO2 (stereo not drawn),-4.67%
14,CC(C)(C)c1ncc(C(=O)NCCNS(C)(=O)=O)s1,-7.98%
15,COCCC(=O)N1CCC(c2ncncc2-c2ccnc(N)c2)C1 (stereo not drawn),-3.28%
16,CCc1cc(N2C[C@H](C3CC3)[C@@H](N)C2)nc(N2CCOCC2)n1,-5.91%
17,O=C(CNCc1ccccc1Cn1cccn1)Nc1cnccn1,-9.54%
18,CC(C)c1nccc(C2(c3ccccc3Cl)CCNCC2)n1,10.5%
19,COc1cccn(CC(=O)N(C)Cc2ccoc2)c1=O,1.59%
20,O=C(c1cccc(C2CCNC2)c1)N1CCC(c2ccncc2)CC1 (stereo not drawn),-18.3%
21,CC(C)N1C(=O)C2(CCN(C)CC2)c2cc(F)ccc21,-7.44%
22,Cc1cc(O)n2nc(C3CCN(C(=O)c4ccccn4)CC3)cc2n1,18.6%
23,CCOC1COC2(CCN(Cc3ccco3)CC2)C1 (stereo not drawn),18.2%

row,SMILES,cytotoxicity at 70.5 h
1,CCCn1cc(NC(=O)c2cccc3cccnc23)ccc1=O,-17.8%
2,O=C(c1ccnnc1)N1C[C@H](OCC2CCOCC2)[C@H]2OCCC[C@H]21,0.563%
3,O=C(O)[C@H]1C[C@H](C(=O)NCc2ccncc2)CN(CCC(F)(F)F)C1,-6.65%
4,O=C1CC2(CCCNC2)C(=O)N1Cc1ccccc1 (stereo not drawn),18.9%
5,Cn1cccc(NC(=O)N2CCC(Cc3ccccc3)C2)c1=O (stereo not drawn),19.7%
6,CNC(=O)CN(C)C(=O)c1cc(Cl)c(Cl)n1C,17.1%
7,CCOc1ncccc1NC(=O)c1cc(C)c(C)s1,-7.38%
8,CCn1cnnc1C1CCN(C(=O)c2cnc(C3CC3)s2)CC1,-10.2%
9,Cn1nnc2c(sc3nc(N4CCOCC4)c4c(c32)CCC4)c1=O,-16%
10,O=C(C1CCC1)N1CCO[C@H]2[C@H](OCCCn3cccn3)CC[C@@H]21,29%
11,O=C(O)C1(Oc2ccc3ccccc3c2)CCN(c2ccncc2)CC1,21.4%
12,CN1C(=O)CO[C@H]2CCN(C(=O)Cc3ccc4c(c3)CCCC4)CC[C@@H]21,-4.91%
13,CCN(CC(=O)NC(C)C)S(=O)(=O)N1CCC(C)C1 (stereo not drawn),-6.99%
14,COC[C@@H]1CCC[C@]12CN(CCc1ccccc1)CCO2,-12.8%
15,COCc1cnc2n1CCN(Cc1cccnc1)C2C (stereo not drawn),-17.6%
16,O=C(NCc1cn2c(n1)CN(CC1CCOCC1)CC2)C1CCC1,-2.34%
17,Cc1cnc(N2CCC[C@@H]3CN(S(C)(=O)=O)C[C@@H]32)nc1,-14.9%
18,Cc1cnn(CC(C)NCc2c(C)nn(Cc3ccccc3)c2C)c1 (stereo not drawn),-4.31%
19,NC(=O)C1CCN(C(=O)c2cccc(CN3CCOCC3)c2)CC1,8.77%
20,O=S(=O)(NCC(O)c1ccc(C(F)(F)F)cc1)C1CC1 (stereo not drawn),12.5%
21,CCc1nnc2n1CCN(C(=O)C(C)Oc1ccc(C#N)cc1)C2 (stereo not drawn),-10.1%
22,Cc1cc(C(=O)N2CC[C@@H]3CO[C@@H](CN4CCCC4)[C@@H]3C2)no1,-7.99%
23,CCC(C)c1cc(C(=O)N(CC(=O)NC)c2cccc(F)c2)on1 (stereo not drawn),20.8%

row,SMILES,cytotoxicity at 70.5 h
1,Cc1cc(C(=O)NCC2CCC3(CC2)OCCO3)[nH]n1,1.56%
2,CCn1c(CN(C)C)nnc1C1CCN(Cc2cccc(C#N)c2)CC1,-5.02%
3,CC(=O)N1CCN(CCNS(=O)(=O)c2cc(F)ccc2C)CC1,4.62%
4,CCC(C(=O)NC1(C(N)=O)CCCC1)n1cccn1 (stereo not drawn),-13.8%
5,CS(=O)(=O)Nc1cnn(Cc2cccc(Cl)c2)c1,-7.33%
6,Cc1nc(CN(C)c2nccc(C(F)(F)F)n2)cs1,-7.33%
7,CN(C)C(CNC(=O)NCCOc1ccccc1)c1ccco1 (stereo not drawn),13%
8,CCN(CC(=O)NC)S(=O)(=O)N1CCCCCC1,-10.4%
9,Cc1nn(C)cc1-c1ccnc(N2CCCN(CC(C)C)CC2)n1,-6.83%
10,CC(C)(C)c1cc(=O)n2c(n1)SCC(C(=O)NCc1cccs1)C2 (stereo not drawn),0.387%
11,CCCNc1ncc(-c2cc(C3CC3)nc(N)c2C#N)cn1,-12.1%
12,Cc1nc2c(N(CCC(N)=O)CCc3ccccc3)ncnc2o1,22%
13,Cc1cc(C)cc(-c2cc(C3CCOC3)c(C#N)c(N)n2)c1 (stereo not drawn),12.8%
14,COc1cc(C)sc1C(=O)N1CCC(Nc2cccnc2)CC1,-5.15%
15,COc1ccc(C(=O)N2CCC(Nc3cccnn3)CC2)c(F)c1,-3.14%
16,CC(C)c1noc(Cn2ncc3ccccc3c2=O)n1,-7.17%
17,CCN1CCN(C2CCN(Cc3c(C)noc3C)CC2)C1=O,25.5%
18,CS(=O)(=O)N1CCc2[nH]cnc2C12CCN(C(=O)c1cccnc1)CC2,-0.221%
19,CC1Cc2ccccc2N1Cc1occc1C(=O)OCC(N)=O (stereo not drawn),2.01%
20,CCn1c(CC2CCN(C(=O)C3CCOC3)CC2)nn(C)c1=O (stereo not drawn),32.2%
21,COCCN1CCC(c2nc3ccccc3[nH]2)CC1,-11%
